In patent publication US11808760B1, “System and methods for in vitro structural toxicity testing” (CURI BIO, INC., priority 2019, dated 2023):

Experiments:
liver cells [1] = tested on: liver cells
liver cells [2] = assay: AI (CNN) structural toxicity assay, aspirin on liver cells (FIG. 6); assay type: cell-based
Description: In an exemplary embodiment of the subject technology, a series of 2-class neural network training steps may be used, where a separate model is created for each drug dose compared to its control. As will be appreciated, a high level of sensitivity in detecting structural changes will be generated. As a result, aspects of the subject technology successfully capture obvious phenotypes, such as cell damage and death, as well as subtle phenotypes, such as changes to sarcomere organization or distribution of mitochondria.
As detailed in the following sections, the input imaging data is processed and may be augmented before training deep neural networks. For each test condition, images from a well are dedicated for validation and the rest are used for training. The performance of each training may be used on the validation wells as the measure of structural change. […] One the other hand, if the achieved accuracy is high, it means that the trained neural network was able to differentiate between the drug-treated images at dose i versus the vehicle images, and the strength of the change is calculated from the distribution of class probabilities.
A 2-class deep neural network may be trained (530) for image classification. The higher layers of the neural network may be allowed to learn the image features. […]

iPSC-derived hepatocytes = assay: AI (CNN) structural toxicity assay, validation z-factor versus dose (FIG. 7); assay type: cell-based; conditions: reference vehicle (DMSO), doses 0.01-30 uM, 18-layer residual network
Description: When using multi-channel images, the channels may include brightfield images, and fluorescence images captured at different wavelengths in order to visualize different cellular structures. As one example of an experimental setup, the cells are iPSC-derived hepatocytes, the drug under investigation is tamoxifen (a drug with known liver toxicity), dose X is 0.01 uM, dose Y is 0.10 uM, dose Z is 1.00 uM, the cells are fixed and stained with phalloidin-conjugated fluorescent dyes, and the imaging is performed with an inverted fluorescence microscopy system, capturing multiple images at each individual well.
A 2-class deep neural network may be trained (530) for image classification. The higher layers of the neural network may be allowed to learn the image features. The training may be performed with an initial learning rate of 0.01 for 20 epochs and may be repeated three times. For each training session, the final neural network may be selected from the epoch with the highest validation accuracy.
To generate the input data to train the neural network, each image may be processed and augmented. […]

SMILES | structural damage of liver cells over time (liver cells [1]) | structural changes in the cells (liver cells [2]) | dose at which validation z-factors show values above -1 (start of structural changes between drug-treated cells and reference cells) (iPSC-derived hepatocytes) [µM]
CC(=O)N[C@@H](CS)C(=O)O [acetylcysteine] | little damage to the cells |  | 
CC(=O)Oc1ccccc1C(=O)O [aspirin] |  | no, or minimal, structural changes | 
COc1cccc2c1C(=O)c1c(O)c3c(c(O)c1C2=O)C[C@@](O)(C(=O)CO)C[C@@H]3O[C@H]1C[C@H](N)[C@H](O)[C@H](C)O1 [doxorubicin] | changes in the structural integrity of the cells |  | 
CC/C(=C(\c1ccccc1)c1ccc(OCCN(C)C)cc1)c1ccccc1 [tamoxifen] | noticeable structural damage |  | 5
